Read-outs that look alike come from different tables or passages of the source.
How the values were obtained:
[1] = tested on: myocardial ischemia reperfusion disorder; experiment: Inhibitory test against myocardial ischemia reperfusion disorder in rats; format: in vivo, rat; settings: 5 mg/kg intraperitoneally; 24 hours after reperfusion
Protocol: Left coronary artery of 7 to 9 week-old rat was ligated to induce ischemic state. After 25 minutes, a test substance suspended in an appropriate diluent or the diluent alone (negative control) was intraperitoneally administered, and after 30 minutes, the animal was reperfused. After 24 hours, a rate of necrosis of an ischemic part of the cardiac muscle was measured.

myocarditis = experiment: Rat myocarditis model immunized with pig heart-derived cardiac myosin; format: in vivo; settings: intraperitoneal administration at 10 mg/kg
NF-κ B = experiment: Inhibitory activity of NF-κ B activation, luciferase reporter assay in HepG2 under TNF-α stimulation; format: cell-based, human; settings: Homo sapiens
Summary of the method: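 Readout is firefly luciferase luminescence, expressed as inhibition versus compound-free wells. Before this, HepG2 cells carrying a transiently transfected 5×NF-κB-site luciferase plasmid (6–24 h post-transfection) received test compound plus TNF-α (40 ng/ml) for 4 h.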

IL-6 = experiment: Inhibition of IL-6 production by TNFα stimulation in synovial fibroblasts derived from a rheumatoid patient (ELISA); format: cell-based, human; settings: Homo sapiens, Fibroblast, 72 h; synovial fibroblasts, 10 ng/ml TNFα, 3 days; read-out: Inhibition against Mediator Release IC50(nM) IL-6
Protocol: (§1) Synovial fibroblasts (Human Synoviocyte (RA-Positive), Toyobo, T4040-05) were cultured for 3 days in a medium containing 10 ng/ml of TNFα and a test compound. IL-6 and IL-8 in the supernatant were measured by the ELISA method, and PGE2 (prostaglandin E2) was measured by the EIA method.

[2] = tested on: artery abrasion restenosis; experiment: Mouse artery abrasion restenosis model; format: in vivo; settings: intraperitoneal administration at 10 mg/kg
IL-8 = experiment: Inhibition of IL-8 production by TNFα stimulation in synovial fibroblasts derived from a rheumatoid patient (ELISA); format: cell-based, human; settings: Homo sapiens, Fibroblast, 72 h; synovial fibroblasts, 10 ng/ml TNFα, 3 days; read-out: Inhibition against Mediator Release IC50(nM) IL-8
Protocol: as §1

[3] = tested on: intestinal ischemic reperfusion-caused hepatopathy; experiment: Rat intestinal ischemic reperfusion-caused hepatopathy model; format: in vivo; settings: intraperitoneal administration of 10 mg/kg
PGE2 = experiment: Inhibition of PGE2 production by TNFα stimulation in synovial fibroblasts derived from a rheumatoid patient (EIA); format: cell-based, human; settings: Homo sapiens, Fibroblast, 72 h; synovial fibroblasts, 10 ng/ml TNFα, 3 days; read-out: Inhibition against Mediator Release IC50(nM) PGE2
Protocol: as §1

[4] = tested on: Vascular smooth muscle cells of normal coronary artery (Cryo CASMC); experiment: Inhibitory test against proliferation of vascular smooth muscle cells of normal coronary artery under proliferation stimulation (MTS assay); format: cell-based; settings: FGF and EGF stimulation, 72 hours
Protocol: Vascular smooth muscle cells of normal coronary artery (Cryo CASMC) were cultured for 2 hours in the presence or absence of a test substance in DMEM medium containing 0.5% of FBS and insulin (5 u g/ml). Then, FGF and EGF were added for proliferation stimulation. The mixture was cultured for 72 hours and proliferation of the cells were measured by the MTS assay. The results aree shown in the following

Thy-1 nephritis = experiment: Rat Thy-1 nephritis model; format: in vivo; settings: intraperitoneal administration of less than 15 mg/kg
[5] = tested on: type II collagen induced arthritis; experiment: Inhibitory test against type II collagen induced arthritis in mice; format: in vivo, Balb/c mice; settings: 10 mg/kg intraperitoneally once in two days; day 44; score of the control = 100%
Protocol: Balb/c mice were immunized with heterologous type II collagen and Freund's complete adjuvant by subcutaneous or intraperitoneal injection. At 21 days after the treatment, these mice were immunized again with heterologous type II collagen and Freund's incomplete adjuvant by subcutaneous or intraperitoneal injection to develop arthritis.
A test substance suspended in an appropriate diluent or the diluent alone (negative control) was administered intraperitoneally once in two days from the day of the first immunization, and as for arthritis developed after the second immunization, clinical symptoms of each ankle joint of all foots were recorded day after day as numerous scores. When the score of the control measured on day 44 after administration of 10 mg/kg of the medicament of the present invention was expresses as 100%, rates of exacerbation (%) of the clinical symptoms of arthritis were 37.5 (Compound No. 4), 76.5 (Compound No. 90), 56.2 (Compound No. 11), 64.0 (Compound No. 88), and 0.0 (Compound No. 83).

O=C(Nc1cc(C(F)(F)F)cc(C(F)(F)F)c1)c1cc(Cl)ccc1O [Compound No.4, N-[3,5-bis(trifluoromethylphenyl)]-5-chloro-2-hydroxybenzamide]
inhibition of the necrosis of the cardiac muscle in comparison with the control [1]: 60% | inhibition of the onset of myocarditis (myocarditis): significantly also inhibited the onset of myocarditis | inhibition at 0.1 µg/mL (NF-κ B; HepG2, 4 h, 0.1 μg/ml, comparison table, reporter assay, read-out: Inhibitory Ratio of NF-κB Activation (%) 0.1 μg/ml): 60.9% | inhibition at 1 µg/mL (NF-κ B; HepG2, 4 h, 1 μg/ml, comparison table, reporter assay, read-out: Inhibitory Ratio of NF-κB Activation (%) 1 μg/ml): 95.7% | inhibition at 10 µg/mL (NF-κ B; HepG2, 4 h, 10 μg/ml, comparison table, reporter assay, read-out: Inhibitory Ratio of NF-κB Activation (%) 10 μg/ml): 97.5% | inhibition at 1 µg/mL (NF-κ B; 1 μg/mL, HepG2, TNF-α (40 ng/ml), 4 hours, read-out: Inhibitory Ratio of NF-κ B Activation(%) Drug Concentration 1 μg/mL): 95.7% | inhibition at 10 µg/mL (NF-κ B; 10 μg/mL, HepG2, TNF-α (40 ng/ml), 4 hours, read-out: Inhibitory Ratio of NF-κ B Activation(%) Drug Concentration 10 μg/mL): 97.5% | IC50 (IL-6): 294 nM | inhibition of proliferation of vascular endothelial cells and vascular smooth muscle cells [2]: significantly inhibited proliferation of vascular endothelial cells and vascular smooth muscle cells | IC50 (IL-8): 450 nM | TNFα concentration in blood [3]: lowered | endotoxic levels in blood [3]: lowered endotoxic levels | inhibition of hepatopathy [3]: significantly inhibited hepatopathy | IC50 (PGE2): 388 nM | Inhibitory Ratio of Proliferation(%) Compound Concentration 250 nM ([4]; 250 nM): 87.9% | Inhibitory Ratio of Proliferation(%) Compound Concentration 500 nM ([4]; 500 nM): 92.2% | renal protective action (Thy-1 nephritis): exhibited a renal protective action | rates of exacerbation (%) of the clinical symptoms of arthritis [5]: 37.5%

Reference: US20060089395A1, “Nf-kb activation inhibitors” (priority 2002, published 2006)
